Laboratory results from patent US9833497B2, “Human originated EGF domain proteins and use of the same” (CHENGDU SOURCEBIO LIMITED-LIABILITY COMPANY, priority 2013, dated 2017).

Columns and labels:
Type in all cases: cell-based
Proteus vulgaris = assay: MIC against Gram-negative bacteria: Proteus vulgaris
In short: (§1)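 The recombinant human-originated EGF domain proteins were serially diluted two-fold against bacteria at 5×10^5 CFU/mL in LB medium. After shaken incubation at 37° C, the lowest concentration with no bacterial growth was recorded as the MIC.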

Aeromonas hydrophila = assay: MIC against Gram-negative bacteria: Aeromonas hydrophila
In short: as §1

E. coli DH5α = assay: Antibacterial activity: MIC and growth curve against E. coli DH5α in 96-well plate; details: minimal inhibitory concentration against E. coli DH5α; 96-well plate, 5×10^5 CFU/mL, 37° C., judged after 8 h
In short: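 Log-phase DH5α (OD600 about 0.5, 37° C, 185 rpm in LB) was pelleted, resuspended in fresh LB and seeded at 5×10^5 CFU/mL with recombinant protein at 50, 25 and 12.5 μg/mL (two-fold series), in triplicate. Plates were shaken at 175 rpm, 37° C, and OD600 was read every 30 min. MIC was the lowest concentration with no growth.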

Proteus mirabilis = assay: MIC against Gram-negative bacteria: Proteus mirabilis
In short: as §1

Serratia marcescens = assay: MIC against Gram-negative bacteria: Serratia marcescens
In short: as §1

Enterobacter cloacae = assay: MIC against Gram-negative bacteria: Enterobacter cloacae
In short: as §1

Citrobacter diversus = assay: MIC against Gram-negative bacteria: Citrobacter diversus
In short: as §1

Moraxella catarrhalis = assay: MIC against Gram-negative bacteria: Moraxella catarrhalis
In short: as §1

Pseudomonas aeruginosa = assay: MIC against Gram-negative bacteria: Pseudomonas aeruginosa
In short: as §1

E. coli BL21 = assay: MIC against Gram-negative bacteria: E. coli BL21
In short: as §1

Klebsiella pneumonia = assay: MIC against Gram-negative bacteria: Klebsiella pneumonia
In short: as §1

[1] = 96-well plate, 5×10^5 CFU/mL, 37° C., 10 h
[2] = P. vulgaris, 10 h cultivation at 37° C., 5×10^5 CFU/mL
[3] = A. hydrophila, 10 h cultivation at 37° C., 5×10^5 CFU/mL
[4] = P. mirabilis, 10 h cultivation at 37° C., 5×10^5 CFU/mL
[5] = S. marcescens, 10 h cultivation at 37° C., 5×10^5 CFU/mL
[6] = E. cloacae, 10 h cultivation at 37° C., 5×10^5 CFU/mL
[7] = C. diversus, 10 h cultivation at 37° C., 5×10^5 CFU/mL
[8] = M. catarrhalis, 10 h cultivation at 37° C., 5×10^5 CFU/mL
[9] = P. aeruginosa, 10 h cultivation at 37° C., 5×10^5 CFU/mL
[10] = E. coli BL21, 10 h cultivation at 37° C., 5×10^5 CFU/mL
[11] = K. pneumonia, 10 h cultivation at 37° C., 5×10^5 CFU/mL
[12] = 10 h cultivation at 37° C., 5×10^5 CFU/mL, two-fold serial dilution

PRT1394 (VRDGCPGLCFGNGRCTLDQNGWHCVCQVGWSGTGCN; listed as Homo sapiens)
50 µg/mL: MIC (E. coli DH5α) | MIC against S. marcescens (Serratia marcescens; Serratia marcescens, 5×10^5 CFU/mL, 10 h cultivation at 37° C.) | MIC against C. diversus (Citrobacter diversus; Citrobacter diversus, 5×10^5 CFU/mL, 10 h cultivation at 37° C.) | MIC against K. pneumonia (Klebsiella pneumonia; Klebsiella pneumonia, 5×10^5 CFU/mL, 10 h cultivation at 37° C.)
25 µg/mL: MIC against P. vulgaris (Proteus vulgaris; Proteus vulgaris, 5×10^5 CFU/mL, 10 h cultivation at 37° C.) | MIC against A. hydrophila (Aeromonas hydrophila; Aeromonas hydrophila, 5×10^5 CFU/mL, 10 h cultivation at 37° C.) | MIC against M. catarrhalis (Moraxella catarrhalis; Moraxella catarrhalis, 5×10^5 CFU/mL, 10 h cultivation at 37° C.)
12.5 µg/mL: MIC against P. mirabilis (Proteus mirabilis; Proteus mirabilis, 5×10^5 CFU/mL, 10 h cultivation at 37° C.) | MIC against E. cloacae (Enterobacter cloacae; Enterobacter cloacae, 5×10^5 CFU/mL, 10 h cultivation at 37° C.) | MIC against P. aeruginosa (Pseudomonas aeruginosa; Pseudomonas aeruginosa, 5×10^5 CFU/mL, 10 h cultivation at 37° C.) | MIC against E. coli BL21 (E. coli BL21; E. coli BL21, 5×10^5 CFU/mL, 10 h cultivation at 37° C.)

PRT508 (CECSHLGNNCDPKTGRCICPPNTIGEKCSKCAPNTWGHSITTGCKA; listed as Homo sapiens)
100 µg/mL: MIC against C. diversus (Citrobacter diversus; [1])
25 µg/mL: MIC against S. marcescens (Serratia marcescens; [1]) | MIC against E. coli BL21 (E. coli BL21; [1]) | MIC against K. pneumonia (Klebsiella pneumonia; [1])
50 µg/mL: MIC against A. hydrophila (Aeromonas hydrophila; [1]) | MIC against M. catarrhalis (Moraxella catarrhalis; [1]) | MIC against P. aeruginosa (Pseudomonas aeruginosa; [1])
12.5 µg/mL: MIC against P. vulgaris (Proteus vulgaris; [1]) | MIC (E. coli DH5α) | MIC against P. mirabilis (Proteus mirabilis; [1]) | MIC against E. cloacae (Enterobacter cloacae; [1])

PRT830 (CALGNGGCQHHCVQLTITRHRCQCRPGFQLQEDGRHC; listed as Homo sapiens)
25 µg/mL: MIC (μg/mL) P. mirabilis (Proteus mirabilis; [4]) | MIC (μg/mL) E. cloacae (Enterobacter cloacae; [6]) | MIC (μg/mL) C. diversus (Citrobacter diversus; [7])
12.5 µg/mL: MIC (μg/mL) P. vulgaris (Proteus vulgaris; [2]) | MIC (μg/mL) A. hydrophila (Aeromonas hydrophila; [3]) | MIC (E. coli DH5α) | MIC (μg/mL) S. marcescens (Serratia marcescens; [5]) | MIC (μg/mL) M. catarrhalis (Moraxella catarrhalis; [8]) | MIC (μg/mL) P. aeruginosa (Pseudomonas aeruginosa; [9]) | MIC (μg/mL) E. coli BL21 (E. coli BL21; [10]) | MIC (μg/mL) K. pneumonia (Klebsiella pneumonia; [11])

PRT823 (FGEACAQRCSCPPGAACHHVTGACRCPPGFTGSGCE; listed as Homo sapiens)
25 µg/mL: MIC (E. coli DH5α) | MIC (μg/mL) P. mirabilis (Proteus mirabilis; [4]) | MIC (μg/mL) E. cloacae (Enterobacter cloacae; [6]) | MIC (μg/mL) C. diversus (Citrobacter diversus; [7]) | MIC (μg/mL) P. aeruginosa (Pseudomonas aeruginosa; [9])
12.5 µg/mL: MIC (μg/mL) P. vulgaris (Proteus vulgaris; [2]) | MIC (μg/mL) A. hydrophila (Aeromonas hydrophila; [3]) | MIC (μg/mL) E. coli BL21 (E. coli BL21; [10]) | MIC (μg/mL) K. pneumonia (Klebsiella pneumonia; [11])
50 µg/mL: MIC (μg/mL) S. marcescens (Serratia marcescens; [5]) | MIC (μg/mL) M. catarrhalis (Moraxella catarrhalis; [8])

PRT1046 (WGFSCNASCQCAHEAVCSPQTGACTCTPGWHGAHCQ; listed as Homo sapiens)
25 µg/mL: MIC P. vulgaris (Proteus vulgaris; [12]) | MIC E. cloacae (Enterobacter cloacae; [12]) | MIC E. coli BL21 (E. coli BL21; [12]) | MIC K. pneumonia (Klebsiella pneumonia; [12])
12.5 µg/mL: MIC A. hydrophila (Aeromonas hydrophila; [12]) | MIC S. marcescens (Serratia marcescens; [12])
50 µg/mL: MIC (E. coli DH5α) | MIC P. mirabilis (Proteus mirabilis; [12]) | MIC C. diversus (Citrobacter diversus; [12]) | MIC M. catarrhalis (Moraxella catarrhalis; [12]) | MIC P. aeruginosa (Pseudomonas aeruginosa; [12])

PRT453 (DINECEQFGTCPQHCRNTKGSYECVCADGFT; listed as Homo sapiens)
50 µg/mL: MIC against M. catarrhalis (Moraxella catarrhalis; [1]) | MIC against K. pneumonia (Klebsiella pneumonia; [1])
12.5 µg/mL: MIC against P. vulgaris (Proteus vulgaris; [1]) | MIC against A. hydrophila (Aeromonas hydrophila; [1]) | MIC against E. coli BL21 (E. coli BL21; [1])
25 µg/mL: MIC (E. coli DH5α) | MIC against P. mirabilis (Proteus mirabilis; [1]) | MIC against S. marcescens (Serratia marcescens; [1]) | MIC against E. cloacae (Enterobacter cloacae; [1]) | MIC against C. diversus (Citrobacter diversus; [1]) | MIC against P. aeruginosa (Pseudomonas aeruginosa; [1])

PRT1035 (HRAKCAPSYLFSCFNGGECVHPAFCDCRRFNATGPRCQ; listed as Homo sapiens)
12.5 µg/mL: MIC (E. coli DH5α) | MIC (Proteus mirabilis; P. mirabilis, 10 h cultivation at 37° C.) | MIC (Citrobacter diversus; C. diversus, 10 h cultivation at 37° C.) | MIC (Pseudomonas aeruginosa; P. aeruginosa, 10 h cultivation at 37° C.)
50 µg/mL: MIC (Aeromonas hydrophila; A. hydrophila, 10 h cultivation at 37° C.) | MIC (Serratia marcescens; S. marcescens, 10 h cultivation at 37° C.) | MIC (E. coli BL21; E. coli BL21, 10 h cultivation at 37° C.)
25 µg/mL: MIC (Proteus vulgaris; P. vulgaris, 10 h cultivation at 37° C.) | MIC (Enterobacter cloacae; E. cloacae, 10 h cultivation at 37° C.) | MIC (Moraxella catarrhalis; M. catarrhalis, 10 h cultivation at 37° C.) | MIC (Klebsiella pneumonia; K. pneumonia, 10 h cultivation at 37° C.)

PRT816 (WGPDCSHPCNCSAGHGSCDAISGLCLCEAGYVGPRCE; listed as Homo sapiens)
100 µg/mL: MIC (μg/mL) P. aeruginosa (Pseudomonas aeruginosa; [9])
12.5 µg/mL: MIC (μg/mL) A. hydrophila (Aeromonas hydrophila; [3]) | MIC (μg/mL) S. marcescens (Serratia marcescens; [5])
50 µg/mL: MIC (μg/mL) M. catarrhalis (Moraxella catarrhalis; [8]) | MIC (μg/mL) E. coli BL21 (E. coli BL21; [10]) | MIC (μg/mL) K. pneumonia (Klebsiella pneumonia; [11])
25 µg/mL: MIC (μg/mL) P. vulgaris (Proteus vulgaris; [2]) | MIC (E. coli DH5α) | MIC (μg/mL) P. mirabilis (Proteus mirabilis; [4]) | MIC (μg/mL) E. cloacae (Enterobacter cloacae; [6]) | MIC (μg/mL) C. diversus (Citrobacter diversus; [7])

PRT145 (DVNECEIYSGTPLSCQNGGTCVNTMGSYSCHCPPETYGPQCA; listed as Homo sapiens)
25 µg/mL: MIC (μg/mL) P. mirabilis (Proteus mirabilis; [4]) | MIC (μg/mL) S. marcescens (Serratia marcescens; [5])
12.5 µg/mL: MIC (μg/mL) P. vulgaris (Proteus vulgaris; [2]) | MIC (μg/mL) A. hydrophila (Aeromonas hydrophila; [3]) | MIC (E. coli DH5α) | MIC (μg/mL) E. cloacae (Enterobacter cloacae; [6]) | MIC (μg/mL) C. diversus (Citrobacter diversus; [7]) | MIC (μg/mL) M. catarrhalis (Moraxella catarrhalis; [8]) | MIC (μg/mL) P. aeruginosa (Pseudomonas aeruginosa; [9]) | MIC (μg/mL) E. coli BL21 (E. coli BL21; [10]) | MIC (μg/mL) K. pneumonia (Klebsiella pneumonia; [11])

PRT1226 (YTASCQDMSCSKQGECLETIGNYTCSCYPGFYGPECE; listed as Homo sapiens)
25 µg/mL: MIC against A. hydrophila (Aeromonas hydrophila; Aeromonas hydrophila, 96-well plate, 5×10^5 CFU/mL, 37° C., 10 h) | MIC (E. coli DH5α) | MIC against S. marcescens (Serratia marcescens; Serratia marcescens, 96-well plate, 5×10^5 CFU/mL, 37° C., 10 h) | MIC against E. cloacae (Enterobacter cloacae; Enterobacter cloacae, 96-well plate, 5×10^5 CFU/mL, 37° C., 10 h) | MIC against P. aeruginosa (Pseudomonas aeruginosa; Pseudomonas aeruginosa, 96-well plate, 5×10^5 CFU/mL, 37° C., 10 h)
12.5 µg/mL: MIC against P. vulgaris (Proteus vulgaris; Proteus vulgaris, 96-well plate, 5×10^5 CFU/mL, 37° C., 10 h) | MIC against M. catarrhalis (Moraxella catarrhalis; Moraxella catarrhalis, 96-well plate, 5×10^5 CFU/mL, 37° C., 10 h) | MIC against K. pneumonia (Klebsiella pneumonia; Klebsiella pneumonia, 96-well plate, 5×10^5 CFU/mL, 37° C., 10 h)
50 µg/mL: MIC against P. mirabilis (Proteus mirabilis; Proteus mirabilis, 96-well plate, 5×10^5 CFU/mL, 37° C., 10 h) | MIC against C. diversus (Citrobacter diversus; Citrobacter diversus, 96-well plate, 5×10^5 CFU/mL, 37° C., 10 h) | MIC against E. coli BL21 (E. coli BL21; E. coli BL21, 96-well plate, 5×10^5 CFU/mL, 37° C., 10 h)
